Experimental data taken from US20260062422A1 (Halda Therapeutics OpCo, Inc., priority 2022, published 2026).

Experiments:
androgen receptor = biological target: T1, androgen receptor (Homo sapiens, UniProt P10275); assay: Assay for binding affinity to androgen receptor ([3H]methyltrienolone radioligand, cell cytosol); conditions: 1 nM [3H]methyltrienolone, 24 hours at 4° C., Table 5
T1 sequence (P10275 1-920 T878A): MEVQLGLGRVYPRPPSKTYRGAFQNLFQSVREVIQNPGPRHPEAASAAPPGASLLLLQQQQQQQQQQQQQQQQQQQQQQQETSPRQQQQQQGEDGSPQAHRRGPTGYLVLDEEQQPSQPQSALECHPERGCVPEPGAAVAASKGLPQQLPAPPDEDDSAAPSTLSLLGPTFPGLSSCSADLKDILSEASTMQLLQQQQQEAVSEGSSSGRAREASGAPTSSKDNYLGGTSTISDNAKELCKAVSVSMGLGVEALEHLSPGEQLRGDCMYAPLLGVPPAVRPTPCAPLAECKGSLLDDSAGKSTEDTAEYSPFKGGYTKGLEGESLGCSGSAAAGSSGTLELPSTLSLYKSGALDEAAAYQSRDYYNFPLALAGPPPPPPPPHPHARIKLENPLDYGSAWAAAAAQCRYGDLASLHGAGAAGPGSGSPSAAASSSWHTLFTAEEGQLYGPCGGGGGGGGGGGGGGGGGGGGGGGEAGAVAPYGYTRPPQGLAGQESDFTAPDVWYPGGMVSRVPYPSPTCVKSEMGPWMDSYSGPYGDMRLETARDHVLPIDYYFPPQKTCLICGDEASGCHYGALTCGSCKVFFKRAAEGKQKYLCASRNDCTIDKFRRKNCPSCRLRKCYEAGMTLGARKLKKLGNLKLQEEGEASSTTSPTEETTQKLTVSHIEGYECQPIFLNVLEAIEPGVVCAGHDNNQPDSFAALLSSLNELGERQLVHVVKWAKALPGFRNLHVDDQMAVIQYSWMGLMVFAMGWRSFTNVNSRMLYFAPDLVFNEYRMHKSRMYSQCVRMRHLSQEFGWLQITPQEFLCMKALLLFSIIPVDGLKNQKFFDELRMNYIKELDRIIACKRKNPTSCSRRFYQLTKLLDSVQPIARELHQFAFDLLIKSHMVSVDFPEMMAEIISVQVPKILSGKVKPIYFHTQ
Procedure, shortened: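 Competition binding in cell cytosol ([…]) with 1 nM [3H]methyltrienolone, 24 hours at 4° C, in pH 7.4 Hepes-Tris buffer with 5 μM triamcinolone acetonide; nonspecific binding defined by 1 μM testosterone. Filtration and scintillation counting; values reported as % inhibition of specific binding.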

[1] = Cellular growth inhibition, T-Rex 293 SC cells with doxycycline (progesterone receptor isoform B induced), Example 45; assay type: cell-based; conditions: progesterone receptor isoform B induced with 10 ng/mL doxycycline, 72 hours, CellTiter-Glo 2.0, Table 11
Protocol: The following types of cells were prepared for this experiment: (i) a T-Rex 293 cell line having increased expression of progesterone receptor isoform B protein due to exposure to doxycycline and (ii) a T-Rex 293 cell line lacking increased expression of progesterone receptor isoform B protein. Ability of the test compounds to inhibit proliferation of the foregoing cell types was evaluated according to the procedures set forth below.
The doxycycline-inducible progesterone receptor isoform B protein expressing cell line was established using the following protocol: T-Rex 293 cells were purchased from Invitrogen (Cat #R71007) and transfected using Lipofectamine 2000 with the wild-type progesterone receptor B protein sequence cloned into the pcDNA4/TO vector. Transfected cells were selected using 400 μg/mL Zeocin (Invitrogen Cat #R25001). Following selection, single clones were raised and maintained in Dulbecco's Modified Eagle Medium (DMEM) supplemented with 10% w/w Tetracycline-free fetal bovine serum (FBS) and 250 μg/mL Zeocin. Clones were analyzed for expression of progesterone receptor isoform B protein in the presence and absence of 10 ng/mL doxycycline (Sigma Cat #D9891), and a single doxycycline-inducible clone (hereinafter “SC”) was selected for use in downstream assays.
The SC cells were seeded on poly-D-lysine coated, black clear-bottom 384-well plates at 2500/well, in 25 μL Phenol Red Free Dulbecco's Modified Eagle Medium (DMEM) supplemented with 10% w/w charcoal-dextran treated fetal bovine serum (FBS) and 1% w/w pen-strep, with or without 10 ng/mL doxycycline. Pen-Strep is a commercially available mixture of penicillin G and streptomycin, which is used in mammalian cell culture media to prevent bacterial contamination. Phenol Red Free Dulbecco's Modified Eagle Medium (DMEM) supplemented with 10% w/w charcoal-dextran treated fetal bovine serum (FBS) and 1% w/w pen-strep, with or without 10 ng/mL doxycycline is herein referred to as Treatment Medium. Following seeding of cells in the plates, the plates were spun at 300×g for 30 seconds, then equilibrated to room temperature for 30 minutes, and then deposited in a humidified tissue culture incubator maintained at 37° C. with 5% CO2.
At 24 hours after seeding of the cells, dilutions of test compound were prepared in DMSO and dissolved in Treatment Medium, to achieve a final DMSO concentration of 0.5% w/w, thereby providing the Test Compound Solution. A 25 μL aliquot of the Test Compound Solution was added to cells in the well plates. An equal volume of a solution containing DMSO and Treatment Medium was used as a negative control. Following treatment of cells with Test Compound Solution or said equal volume of a solution containing DMSO and Treatment Medium, the plates were spun at 300×g for 30 seconds, and then left in an incubator for 72 hours.
At the end of the treatment duration, cell viability was quantified with CellTiter-Glo 2.0 reagent (Promega Cat #G9243). For this purpose, plates were equilibrated to room temperature for 30 minutes, and then 25 μL of CellTiter-Glo 2.0 reagent was added to cells in the plate wells. Plates were then agitated on a shaker for two minutes at 500 rpm and subsequently incubated at room temperature for 10 minutes. Following incubation, the plates were spun at 3000×g for 30 seconds, then sealed with an optical adhesive cover, and luminescence readings were measured with an EnVision Plate Reader (Perkin Elmer).
Data was normalized using zero luminescence for baseline. A four-parameter non-linear regression curve fit was applied to dose-response data in GraphPad Prism data analysis software to determine the half-maximal growth inhibitory concentration (GI50) for each test compound.

Structure (SMILES)	Kd (androgen receptor)	GI50 [1]
Cc1sc2c(c1C)C(c1ccc(Cl)cc1)=N[C@@H](CC(=O)NCCOCCOCCOCCOCCOCCOCCN(C)c1ncc(C(=O)N[C@H]3C(C)(C)[C@H](Oc4ccc(C#N)c(Cl)c4)C3(C)C)cn1)c1nnc(C)n1-2 [Compound I-4]	< 50 nM	< 500 nM
Cc1sc2c(c1C)C(c1ccc(Cl)cc1)=N[C@@H](CC(=O)NCCOC1CCN(c3ncc(C(=O)N[C@H]4C(C)(C)[C@H](Oc5ccc(C#N)c(Cl)c5)C4(C)C)cn3)CC1)c1nnc(C)n1-2 [Compound I-6]	< 50 nM	< 500 nM
Cc1sc2c(c1C)C(c1ccc(Cl)cc1)=N[C@@H](CC(=O)NCCOCCOCCOC1CCN(c3ncc(C(=O)N[C@H]4C(C)(C)[C@H](Oc5ccc(C#N)c(Cl)c5)C4(C)C)cn3)CC1)c1nnc(C)n1-2 [Compound I-7]	< 50 nM	< 500 nM
Cc1sc2c(c1C)C(c1ccc(Cl)cc1)=N[C@@H](CC(=O)NCCOCCOCCOCCOCCOC1CCN(c3ncc(C(=O)N[C@H]4C(C)(C)[C@H](Oc5ccc(C#N)c(Cl)c5)C4(C)C)cn3)CC1)c1nnc(C)n1-2 [Compound I-8]	< 50 nM	< 500 nM
Cc1sc2c(c1C)C(c1ccc(CCCOC3CCN(c4ncc(C(=O)N[C@H]5C(C)(C)[C@H](Oc6ccc(C#N)c(Cl)c6)C5(C)C)cn4)CC3)cc1)=N[C@@H](Cc1ncco1)c1nnc(C)n1-2 [Compound I-131, N-[3-(3-chloro-4-cyano-phenoxy)-2,2,4,4-tetramethyl-cyclobutyl]-2-[4-[3-[4-[(9S)-4,5,13-trimethyl-9-(oxazol-2-ylmethyl)-3-thia-1,8,11,12-tetrazatricyclo[8.3.0.02,6]trideca-2(6),4,7,10,12-pentaen-7-yl]phenyl]propoxy]-1-piperidyl]pyrimidine-5-carboxamide]	–	< 500 nM
Cc1sc2c(c1C)C(c1ccc(CC3CC(C4CCN(c5ncc(C(=O)N[C@H]6C(C)(C)[C@H](Oc7ccc(C#N)c(Cl)c7)C6(C)C)cn5)CC4)C3)cc1)=NC(Cc1ncco1)c1nnc(C)n1-2 (stereo partly shown) [Compound I-136]	–	< 500 nM
Cc1sc2c(c1C)C(c1ccc(CC3CN(CC4CCN(c5ncc(C(=O)N[C@H]6C(C)(C)[C@H](Oc7ccc(C#N)c(Cl)c7)C6(C)C)cn5)CC4)C3)cc1)=N[C@@H](Cc1ncco1)c1nnc(C)n1-2 [Compound I-153]	–	< 500 nM
Cc1sc2c(c1C)C(c1ccc(C[C@H]3C[C@@H]([C@@H]4CCCN(c5ncc(C(=O)N[C@H]6C(C)(C)[C@H](Oc7ccc(C#N)c(Cl)c7)C6(C)C)cn5)C4)C3)cc1)=N[C@@H](Cc1ncco1)c1nnc(C)n1-2 [Compound I-161]	–	< 500 nM
Cc1sc2c(c1C)C(c1ccc(OC3CN(CC4CCN(c5ncc(C(=O)N[C@H]6C(C)(C)[C@H](Oc7ccc(C#N)c(Cl)c7)C6(C)C)cn5)CC4)C3)cc1)=N[C@H](Cc1ncco1)c1nnc(C)n1-2 [Compound I-169]	–	< 500 nM
Cc1sc2c(c1C)C(c1ccc(O[C@H]3CC[C@@]4(CCCN(c5ncc(C(=O)N[C@H]6C(C)(C)[C@H](Oc7ccc(C#N)c(Cl)c7)C6(C)C)cn5)C4)CC3)cc1)=N[C@@H](Cc1ncco1)c1nnc(C)n1-2 [Compound I-172]	–	< 500 nM
Cc1sc2c(c1C)C(c1ccc(N3CC(C4CCN(c5ncc(C(=O)N[C@H]6C(C)(C)[C@H](Oc7ccc(C#N)c(Cl)c7)C6(C)C)cn5)CC4)C3)cc1)=NC(Cc1ncco1)c1nnc(C)n1-2 (stereo partly shown) [Compound I-209]	–	< 500 nM
COCC[C@@H]1N=C(c2ccc(CCCOC3CCN(c4ncc(C(=O)N[C@H]5C(C)(C)[C@H](Oc6ccc(C#N)c(Cl)c6)C5(C)C)cn4)CC3)cc2)c2c(sc(C)c2C)-n2c(C)nnc21 [Compound I-227, N-[3-(3-chloro-4-cyano-phenoxy)-2,2,4,4-tetramethyl-cyclobutyl]-2-[4-[3-[4-[(9S)-9-(2-methoxyethyl)-4,5,13-trimethyl-3-thia-1,8,11,12-tetrazatricyclo[8.3.0.02,6]trideca-2(6),4,7,10,12-pentaen-7-yl]phenyl]propoxy]-1-piperidyl]pyrimidine-5-carboxamide]	–	< 500 nM
Cc1sc2c(c1C)C(c1ccc(CCCOC3CCN(c4ncc(C(=O)N[C@H]5C(C)(C)[C@H](Oc6ccc(C#N)c(Cl)c6)C5(C)C)cn4)CC3)cc1)=N[C@@H](C)c1nnc(C)n1-2 [Compound I-228, N-[3-(3-chloro-4-cyano-phenoxy)-2,2,4,4-tetramethyl-cyclobutyl]-2-[4-[3-[4-[(9S)-4,5,9,13-tetramethyl-3-thia-1,8,11,12-tetrazatricyclo [8.3.0.02,6]trideca-2(6),4,7,10,12-pentaen-7-yl]phenyl]propoxy]-1-piperidyl]pyrimidine-5-carboxamide]	–	< 500 nM
Cc1sc2c(c1C)C(c1ccc(OCCOC3CCN(c4ncc(C(=O)N[C@H]5C(C)(C)[C@H](Oc6ccc(C#N)c(Cl)c6)C5(C)C)cn4)CC3)cc1)=N[C@@H](CC(=O)OC(C)(C)C)c1nnc(C)n1-2 [Compound I-235, tert-butyl 2-((S)-4-(4-(2-((1-(5-(((1r,3r)-3-(3-chloro-4-cyanophenoxy)-2,2,4,4-tetramethylcyclobutyl)carbamoyl)pyrimidin-2-yl)piperidin-4-yl)oxy)ethoxy)phenyl)-2,3,9-trimethyl-6H-thieno[3,2-f][1,2,4]triazolo[4,3-a][1,4]diazepin-6-yl)acetate]	–	< 500 nM
Cc1sc2c(c1C)C(c1ccc(C3CC3C3CC4(CCN(c5ncc(C(=O)N[C@H]6C(C)(C)[C@H](Oc7ccc(C#N)c(Cl)c7)C6(C)C)cn5)CC4)C3)cc1)=N[C@@H](Cc1ncco1)c1nnc(C)n1-2 (stereo partly shown) [Compound I-237]	–	< 500 nM
Cc1sc2c(c1C)C(c1ccc(CCC3CC4(CCCN(c5ncc(C(=O)N[C@H]6C(C)(C)[C@H](Oc7ccc(C#N)c(Cl)c7)C6(C)C)cn5)C4)C3)cc1)=N[C@@H](Cc1ncco1)c1nnc(C)n1-2 [Compound I-241]	–	< 500 nM
Cc1sc2c(c1C)C(c1ccc(C#CC3CC4(CCN(c5ncc(C(=O)N[C@H]6C(C)(C)[C@H](Oc7ccc(C#N)c(Cl)c7)C6(C)C)cn5)CC4)C3)cc1)=N[C@@H](Cc1ncco1)c1nnc(C)n1-2 [Compound I-267]	–	< 500 nM
Cc1sc2c(c1C)C(c1ccc(N3CC(CC4CCN(c5ncc(C(=O)N[C@H]6C(C)(C)[C@H](Oc7ccc(C#N)c(Cl)c7)C6(C)C)cn5)CC4)C3)cc1)=N[C@@H](C)c1nnc(C)n1-2 [Compound I-270]	–	< 500 nM
